These results are taken from PubChem BioAssay AID248 (DTP/NCI, 2004).

For this assay, the system named is L1210 leukemia ip in BDF1 mice, survival T/C. The assay is described as follows: NCI In Vivo Anticancer Drug Screen. Data for tumor model L1210 Leukemia (intraperitoneal) in B6D2F1 (BDF1) mice. As to conditions: endpoint: mean survival time, higher = longer survival. Summed up: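 Transplanted-tumor mice were given test agent; controls received vehicle only. Survival readings from the two groups were divided (treated over control).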

The mark [1] stands for this setting: dose: 400.0 mg/kg/injection, schedule: Q04DX002 (ip), vehicle: saline with Tween-80.
Setting [2] is: dose: 100.0 mg/kg/injection, schedule: Q04DX002 (ip), vehicle: Klucel (hydroxypropylcellulose) (HPC).
[3] abbreviates: dose: 200.0 mg/kg/injection, schedule: Q04DX002 (ip), vehicle: Klucel (hydroxypropylcellulose) (HPC).
[4] abbreviates: dose: 400.0 mg/kg/injection, schedule: Q04DX002 (ip), vehicle: Klucel (hydroxypropylcellulose) (HPC).
[5] abbreviates: dose: 100.0 mg/kg/injection, schedule: Q04DX002 (ip), vehicle: saline.
Where [6] appears, read: dose: 100.0 mg/kg/injection, schedule: Q01DX009 (ip), vehicle: saline with Tween-80.
[7] abbreviates: dose: 200.0 mg/kg/injection, schedule: Q01DX009 (ip), vehicle: saline with Tween-80.
Setting [8] is: dose: 400.0 mg/kg/injection, schedule: Q01DX009 (ip), vehicle: saline with Tween-80.
[9] abbreviates: dose: 50.0 mg/kg/injection, schedule: Q01DX009 (ip), vehicle: saline.
The mark [10] stands for this setting: dose: 100.0 mg/kg/injection, schedule: Q01DX009 (ip), vehicle: saline.
The mark [11] stands for this setting: dose: 100.0 mg/kg/injection, schedule: Q04DX003 (ip), vehicle: saline.
Setting [12] is: dose: 200.0 mg/kg/injection, schedule: Q01DX009 (ip), vehicle: saline.
[13] abbreviates: dose: 200.0 mg/kg/injection, schedule: Q04DX003 (ip), vehicle: saline.
Where [14] appears, read: dose: 100.0 mg/kg/injection, schedule: Q01DX001 (ip), vehicle: saline.
Where [15] appears, read: dose: 200.0 mg/kg/injection, schedule: Q01DX001 (ip), vehicle: saline.
The mark [16] stands for this setting: dose: 400.0 mg/kg/injection, schedule: Q01DX001 (ip), vehicle: saline.

Several values for one entry are separate records, joined by “and”; a condition that tells them apart may be missing. Equal values may be shown once. Inconclusive results and toxic doses are left out.

With `CN(CCCl)c1ccc(C2N(Cc3ccccc3)c3ccccc3N2Cc2ccccc2)cc1`, the T/C runs as follows: (dose: 6.2 mg/kg/injection, schedule: Q01DX001 (ip), vehicle: carboxymethylcellulose (CMC)) 94 % of control; (dose: 12.5 mg/kg/injection, schedule: Q01DX001 (ip), vehicle: carboxymethylcellulose (CMC)) 103 % of control.

As to `CCOc1ccc(-n2c(=O)c(N=Nc3ccc(Cl)cc3)c(O)n(-c3ccc(C)cc3)c2=S)cc1`, the T/C is, setting by setting: (dose: 100.0 mg/kg/injection, schedule: Q01DX001 (ip), vehicle: Klucel (hydroxypropylcellulose) (HPC)) 100 % of control; (dose: 200.0 mg/kg/injection, schedule: Q01DX001 (ip), vehicle: Klucel (hydroxypropylcellulose) (HPC)) 107 % of control; (dose: 400.0 mg/kg/injection, schedule: Q01DX001 (ip), vehicle: Klucel (hydroxypropylcellulose) (HPC)) 100 % of control.

`O=C(CC(=O)c1ccccc1)c1ccccc1`: the T/C reads like this: (dose: 100.0 mg/kg/injection, schedule: Q04DX002 (ip), vehicle: saline with Tween-80) 97 % of control; (dose: 200.0 mg/kg/injection, schedule: Q04DX002 (ip), vehicle: saline with Tween-80) 102 % of control; under setting [1], 94 % of control.

As to `c1ccc(CC[n+]2ccccc2)cc1`, the T/C is 106 % of control (dose: 10.0 mg/kg/injection, schedule: Q01DX001 (ip), vehicle: saline); 94 % of control (dose: 20.0 mg/kg/injection, schedule: Q01DX001 (ip), vehicle: saline); 95 % of control (dose: 40.0 mg/kg/injection, schedule: Q01DX001 (ip), vehicle: saline).

As to `O=C(O)c1cc(Br)ccc1I`, the T/C under setting [2] is 104 % of control, the T/C under setting [3] is 97 % of control and the T/C under setting [4] was 101 % of control.

On to `CCOC(=O)NOP(=O)(N1CC1(C)C)N1CC1(C)C` (stereo not given), for which the T/C is 207 % of control under setting [5] and 86 % of control (dose: 200.0 mg/kg/injection, schedule: Q04DX002 (ip), vehicle: saline).

In the case of `c1cc[c]([GeH]([c]2ccccc2)[c]2ccccc2)cc1`, the T/C (dose: 64.0 mg/kg/injection, schedule: Q04DX002 (ip), vehicle: saline with Tween-80) was 91 % of control; the T/C (dose: 160.0 mg/kg/injection, schedule: Q04DX002 (ip), vehicle: saline with Tween-80) was 94 % of control; the T/C under setting [1] is 97 % of control.

For the molecule `CC(=O)OCCC#CCCCO`, the T/C was 90 % of control under setting [6], 98 % of control under setting [7] and 97 % of control under setting [8].

For `O=C(O)c1nc2nc(Cl)c(Cl)nc2[nH]1`, the T/C runs as follows: under setting [9], 98 % of control; under setting [10], 101 % of control and 90 % of control; under setting [11], 100 % of control; under setting [12], 93 % of control and 96 % of control; under setting [13], 103 % of control; (dose: 300.0 mg/kg/injection, schedule: Q01DX009 (ip), vehicle: saline) 102 % of control. Further, the T/C (dose: 400.0 mg/kg/injection, schedule: Q01DX009 (ip), vehicle: saline) was 91 % of control.

As to `Nc1ncnc2c1nc1n2C2OC(CO)C(O)C2O1` (stereo not given), the T/C runs as follows: under setting [14], 111 % of control; under setting [15], 109 % of control; under setting [16], 111 % of control.

For the molecule `C=CCCCCCCCCC(=O)O` (tested in a mixture with another compound), the T/C by setting is: (dose: 10.0 mg/kg/injection, schedule: Q01DX001 (ip), vehicle: carboxymethylcellulose (CMC)) 93 % of control; (dose: 20.0 mg/kg/injection, schedule: Q01DX001 (ip), vehicle: carboxymethylcellulose (CMC)) 104 % of control; (dose: 40.0 mg/kg/injection, schedule: Q01DX001 (ip), vehicle: carboxymethylcellulose (CMC)) 106 % of control; (dose: 80.0 mg/kg/injection, schedule: Q01DX001 (ip), vehicle: carboxymethylcellulose (CMC)) 101 % of control; (dose: 100.0 mg/kg/injection, schedule: Q01DX001 (ip), vehicle: carboxymethylcellulose (CMC)) 97 % of control.

As for `Cn1ncc2[nH]c(=O)n(O)c(=O)c21`, the T/C is 93 % of control (dose: 50.0 mg/kg/injection, schedule: Q01DX001 (ip), vehicle: saline); 96 % of control under setting [14]; 100 % of control under setting [15]; 100 % of control under setting [16].

`CCOC(=O)NC(=O)Nc1ncn[nH]1`: the T/C runs as follows: under setting [11], 97 % of control; under setting [13], 94 % of control; (dose: 400.0 mg/kg/injection, schedule: Q04DX003 (ip), vehicle: saline) 94 % of control.

`CC(C)(C)N1CC1`: the T/C (dose: 25.0 mg/kg/injection, schedule: Q04DX002 (ip), vehicle: saline) is 103 % of control; the T/C under setting [9] is 101 % of control; the T/C (dose: 50.0 mg/kg/injection, schedule: Q04DX002 (ip), vehicle: saline) is 93 % of control; the T/C under setting [14] is 106 % of control; the T/C under setting [10] is 111 % of control; the T/C under setting [5] is 93 % of control. Further, the T/C under setting [15] is 106 % of control and the T/C under setting [12] was 103 % of control.

`COc1cc(C(=O)Nc2ccc(NC3=NCCN3)cc2)cc(C(=O)Nc2ccc(NC3=NCCN3)cc2)c1`: the T/C (dose: 1.9 mg/kg/injection, schedule: Q01DX Z (ip), vehicle: methylcellulose (MC)) is 104 % of control; the T/C (dose: 3.8 mg/kg/injection, schedule: Q01DX Z (ip), vehicle: methylcellulose (MC)) is 99 % of control; the T/C (dose: 7.5 mg/kg/injection, schedule: Q01DX Z (ip), vehicle: methylcellulose (MC)) was 113 % of control; the T/C (dose: 15.0 mg/kg/injection, schedule: Q01DX Z (ip), vehicle: methylcellulose (MC)) was 118 % of control.

On to `O=c1[nH]cnc2nc(I)[nH]c12`, for which the T/C was 104 % of control under setting [14], 98 % of control under setting [15] and 98 % of control under setting [16].

Consider `CN(C)C1CCC(/C=C(\C#N)C2CCC([N+](=O)[O-])CC2)CC1` (stereo not given), for which the T/C reads like this: (dose: 25.0 mg/kg/injection, schedule: Q04DX002 (ip), vehicle: Klucel (hydroxypropylcellulose) (HPC)) 109 % of control; (dose: 50.0 mg/kg/injection, schedule: Q01DX009 (ip), vehicle: Klucel (hydroxypropylcellulose) (HPC)) 106 % of control; (dose: 50.0 mg/kg/injection, schedule: Q04DX002 (ip), vehicle: Klucel (hydroxypropylcellulose) (HPC)) 95 % of control; (dose: 100.0 mg/kg/injection, schedule: Q01DX009 (ip), vehicle: Klucel (hydroxypropylcellulose) (HPC)) 106 % of control; under setting [2], 95 % of control; (dose: 200.0 mg/kg/injection, schedule: Q01DX009 (ip), vehicle: Klucel (hydroxypropylcellulose) (HPC)) 102 % of control. Besides, the T/C runs as follows: under setting [3], 95 % of control and 100 % of control; under setting [4], 103 % of control.

`CC1(O)CCC2CC1C2(C)CO` (stereo not given): the T/C was 108 % of control (dose: 50.0 mg/kg/injection, schedule: Q04DX003 (ip), vehicle: Klucel (hydroxypropylcellulose) (HPC)); 101 % of control (dose: 100.0 mg/kg/injection, schedule: Q04DX003 (ip), vehicle: Klucel (hydroxypropylcellulose) (HPC)); 106 % of control (dose: 200.0 mg/kg/injection, schedule: Q04DX003 (ip), vehicle: Klucel (hydroxypropylcellulose) (HPC)); 111 % of control (dose: 400.0 mg/kg/injection, schedule: Q04DX003 (ip), vehicle: Klucel (hydroxypropylcellulose) (HPC)).

Take `Cc1ccc(OC(=O)C(C(=O)Oc2ccc(C)cc2)C(=O)Oc2ccc(C)cc2)cc1`: the T/C was 104 % of control (dose: 25.0 mg/kg/injection, schedule: Q01DX001 (ip), vehicle: saline with Tween-80); 101 % of control (dose: 50.0 mg/kg/injection, schedule: Q01DX001 (ip), vehicle: saline with Tween-80); 95 % of control and 98 % of control (dose: 100.0 mg/kg/injection, schedule: Q01DX001 (ip), vehicle: saline with Tween-80).

For `CC1CCC=C2C(=O)C3OC(C)(C)C(C3O)C21C` (stereo not given), the T/C by setting is: under setting [6], 96 % of control; (dose: 100.0 mg/kg/injection, schedule: Q04DX003 (ip), vehicle: saline with Tween-80) 97 % of control; under setting [7], 91 % of control; (dose: 200.0 mg/kg/injection, schedule: Q04DX003 (ip), vehicle: saline with Tween-80) 103 % of control; under setting [8], 93 % of control; (dose: 400.0 mg/kg/injection, schedule: Q04DX003 (ip), vehicle: saline with Tween-80) 90 % of control.
